Data taken from patent US12624018B1, “Inhibitors of RIPK2 and medical uses thereof” (Odyssey Therapeutics, Inc., priority 2022, dated 2026).

Each molecule was assayed against T1, RIPK2 enzyme (Homo sapiens, UniProt O43353) (assay: RIPK2 inhibition (ADP-Glo Kinase Assay)). Details: RIPK2 5 nM, ATP 150 μM, MBP substrate, read-out: RIPK2 IC50.
T1 construct: purchased Carna 09-128
Assay type: biochemical
Experimental: RIPK2 inhibition was measured as follows:
The V9102 ADP-Glo Kinase Assay (including ultrapure ATP, 10 mM) was purchased from Promega. Native swine MBP was used as the substrate for the reaction and was purchased from SignalChem Biotech (catalogue number M42-51N). Assay buffer used for the assay consisted of the following components: MgCl2 (final concentration of 10 mM), Brij-35 (0.01%), DTT (final concentration of 2 mM), BSA (0.05%), EGTA (final concentration of 1 mM), and HEPE (pH 7.5 at final concentration of 50 mM).
Method: In a 384 well plate, 10 nL of test compound was dispensed using Echo550 and mixed with RIPK2 enzyme (final concentration of 5 nM) in assay buffer for 30 minutes at room temperature. […] Then ADP-Glo reagent was added and incubated for 60 min at room temperature. Last, Kinase Detection Reagent was added to the mixture and incubated for 60 min. The resulting luminescent signal was measured with an Envision reader to determine the amount of ADP produced. All plates contained vehicle controls (10 nL DMSO only) as a reference for the high control (0% kinase inhibition), and wells with no RIPK2 enzyme as reference for low control (100% kinase inhibition). Data were analyzed to determine the percent inhibition of ADP production in the presence of test compound using both low and high controls.

T1 sequence (O43353 1-299 limits assumed): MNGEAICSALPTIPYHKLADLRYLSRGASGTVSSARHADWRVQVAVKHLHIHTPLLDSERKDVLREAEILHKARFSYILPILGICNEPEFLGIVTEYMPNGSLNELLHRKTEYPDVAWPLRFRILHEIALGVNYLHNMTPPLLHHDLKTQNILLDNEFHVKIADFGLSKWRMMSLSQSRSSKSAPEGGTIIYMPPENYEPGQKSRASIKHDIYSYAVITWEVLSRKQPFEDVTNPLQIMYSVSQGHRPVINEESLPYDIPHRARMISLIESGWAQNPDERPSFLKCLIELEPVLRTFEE

| Structure (SMILES) | IC50 [nM] |
| --- | --- |
| Cc1cc(CC(=O)Nc2cnn(C(C)(C)C)c2)ccc1Oc1ccnc2ccc(S(=O)(=O)C3CC(N)C3)cc12 (single isomer, unassigned) [Compound 283, 2-(4-((6-((-3-aminocyclobutyl)sulfonyl)quinolin-4-yl)oxy)-3-methylphenyl)-N-(1-(tert-butyl)-1H-pyrazol-4-yl)acetamide] | < 2.5 |
| Cc1c(Oc2ccnc3ccc(S(=O)(=O)C4CC(O)C4)cc23)ccc(CC(=O)Nc2cnn(C(C)(C)C)c2)c1F (single isomer, unassigned) [Compound 285, N-(1-(tert-butyl)-1H-pyrazol-4-yl)-2-(2-fluoro-4-((6-((-3-hydroxycyclobutyl)sulfonyl)quinolin-4-yl)oxy)-3-methylphenyl)acetamide] | < 2.5 |
| Cc1c(Oc2ccnc3ccc(S(=O)(=O)C4CC(O)C4)cc23)ccc(CC(=O)Nc2cnn(C(C)(C)C)c2)c1F (single isomer, unassigned) [Compound 286, N-(1-(tert-butyl)-1H-pyrazol-4-yl)-2-(2-fluoro-4-((6-((-3-hydroxycyclobutyl)sulfonyl)quinolin-4-yl)oxy)-3-methylphenyl)acetamide] | < 2.5 |
| Cc1c(Oc2ccnc3ccc(S(=O)(=O)C4CC(N)C4)cc23)ccc(CC(=O)Nc2cnn(C(C)(C)C)c2)c1F (single isomer, unassigned) [Compound 287, 2-(4-((6-((-3-aminocyclobutyl)sulfonyl)quinolin-4-yl)oxy)-2-fluoro-3-methylphenyl)-N-(1-(tert-butyl)-1H-pyrazol-4-yl)acetamide] | < 2.5 |
| Cc1c(Oc2ccnc3ccc(S(=O)(=O)C4CC(N)C4)cc23)ccc(CC(=O)Nc2cnn(C(C)(C)C)c2)c1F (single isomer, unassigned) [Compound 288, 2-(4-((6-((-3-aminocyclobutyl)sulfonyl)quinolin-4-yl)oxy)-2-fluoro-3-methylphenyl)-N-(1-(tert-butyl)-1H-pyrazol-4-yl)acetamide] | < 2.5 |
| Cc1cc(CC(=O)Nc2cnn(C(C)(C)C)c2)ccc1Oc1ccnc2ccc(N3C(=O)CCC3C)cc12 (single isomer, unassigned) [Compound 291, N-(1-(tert-butyl)-1H-pyrazol-4-yl)-2-(3-methyl-4-((6-(2-methyl-5-oxopyrrolidin-1-yl)quinolin-4-yl)oxy)phenyl) acetamide] | < 2.5 |
| Cc1cc(CC(=O)Nc2cnn(C(C)(C)C)c2)ccc1Oc1ccnc2ccc(N3C(=O)CCC3C)cc12 (single isomer, unassigned) [Compound 292, N-(1-(tert-butyl)-1H-pyrazol-4-yl)-2-(3-methyl-4-((6-(2-methyl-5-oxopyrrolidin-1-yl)quinolin-4-yl)oxy)phenyl) acetamide] | < 2.5 |
| Cc1c(Oc2ccnc3ccc(N4C(=O)CCC4C)cc23)ccc(CC(=O)Nc2cnn(C(C)(C)C)c2)c1F (single isomer, unassigned) [Compound 296, N-(1-(tert-butyl)-1H-pyrazol-4-yl)-2-(2-fluoro-3-methyl-4-((6-(2-methyl-5-oxopyrrolidin-1-yl)quinolin-4-yl)oxy)phenyl) acetamide] | < 2.5 |
| Cc1c(Oc2ccnc3ccc(N4C(=O)CCC4C)cc23)ccc(CC(=O)Nc2cnn(C(C)(C)C)c2)c1F (single isomer, unassigned) [Compound 297, N-(1-(tert-butyl)-1H-pyrazol-4-yl)-2-(2-fluoro-3-methyl-4-((6-(2-methyl-5-oxopyrrolidin-1-yl)quinolin-4-yl)oxy)phenyl) acetamide] | < 2.5 |
| Cc1c(Oc2ccnc3ccc(C4CCNC4=O)cc23)ccc(CC(=O)Nc2cnn(C(C)(C)C)c2)c1F (single isomer, unassigned) [Compound 304, N-(1-(tert-butyl)-1H-pyrazol-4-yl)-2-(2-fluoro-3-methyl-4-((6-(2-oxopyrrolidin-3-yl)quinolin-4-yl)oxy)phenyl)acetamide] | < 2.5 |
| Cc1c(Oc2ccnc3ccc(C4CCNC4=O)cc23)ccc(CC(=O)Nc2cnn(C(C)(C)C)c2)c1F (single isomer, unassigned) [Compound 305, N-(1-(tert-butyl)-1H-pyrazol-4-yl)-2-(2-fluoro-3-methyl-4-((6-(2-oxopyrrolidin-3-yl)quinolin-4-yl)oxy)phenyl)acetamide] | < 2.5 |
| Cc1cc(CC(=O)Nc2cnn(C(C)(C)C)c2)ccc1Oc1ccnc2ccc(N3CC(CO)OC3=O)cc12 (single isomer, unassigned) [Compound 317, N-(1-(tert-butyl)-1H-pyrazol-4-yl)-2-(4-((6-(5-(hydroxymethyl)-2-oxooxazolidin-3-yl)quinolin-4-yl)oxy)-3-methylphenyl) acetamide] | < 2.5 |
| Cc1cc(CC(=O)Nc2cnn(C(C)(C)C)c2)ccc1Oc1ccnc2ccc(N3CC(CO)OC3=O)cc12 (single isomer, unassigned) [Compound 318, N-(1-(tert-butyl)-1H-pyrazol-4-yl)-2-(4-((6-(5-(hydroxymethyl)-2-oxooxazolidin-3-yl)quinolin-4-yl)oxy)-3-methylphenyl) acetamide] | < 2.5 |
| Cc1cc(CC(=O)Nc2cnn(C(C)(C)C)c2)ccc1Oc1ccnc2ccc(N3CC(CN)OC3=O)cc12 (single isomer, unassigned) [Compound 319, 2-(4-((6-(5-(aminomethyl)-2-oxooxazolidin-3-yl)quinolin-4-yl)oxy)-3-methylphenyl)-N-(1-(tert-butyl)-1H-pyrazol-4-yl)acetamide] | < 2.5 |
| Cc1cc(CC(=O)Nc2cnn(C(C)(C)C)c2)ccc1Oc1ccnc2ccc(N3CC(CN)OC3=O)cc12 (single isomer, unassigned) [Compound 320, 2-(4-((6-(5-(aminomethyl)-2-oxooxazolidin-3-yl)quinolin-4-yl)oxy)-3-methylphenyl)-N-(1-(tert-butyl)-1H-pyrazol-4-yl)acetamide] | < 2.5 |
| Cc1cc(CC(=O)Nc2cnn(C(C)(C)C)c2)ccc1Oc1ccnc2ccc([S+](C)[O-])cc12 (single isomer, unassigned) [Compound 321, N-(1-(tert-butyl)-1H-pyrazol-4-yl)-2-(3-methyl-4-((6-(methylsulfinyl)quinolin-4-yl)oxy)phenyl)acetamide] | < 2.5 |
| Cc1cc(CC(=O)Nc2cnn(C(C)(C)C)c2)ccc1Oc1ccnc2ccc([S+](C)[O-])cc12 (single isomer, unassigned) [Compound 322, N-(1-(tert-butyl)-1H-pyrazol-4-yl)-2-(3-methyl-4-((6-(methylsulfinyl)quinolin-4-yl)oxy)phenyl)acetamide] | < 2.5 |
| Cc1c(Oc2ccnc3ccc([S+](C)[O-])cc23)ccc(CC(=O)Nc2cnn(C(C)(C)C)c2)c1F (single isomer, unassigned) [Compound 323, N-(1-(tert-butyl)-1H-pyrazol-4-yl)-2-(2-fluoro-3-methyl-4-((6-(methylsulfinyl)quinolin-4-yl)oxy)phenyl)acetamide] | < 2.5 |
| Cc1c(Oc2ccnc3ccc([S+](C)[O-])cc23)ccc(CC(=O)Nc2cnn(C(C)(C)C)c2)c1F (single isomer, unassigned) [Compound 324, N-(1-(tert-butyl)-1H-pyrazol-4-yl)-2-(2-fluoro-3-methyl-4-((6-(methylsulfinyl)quinolin-4-yl)oxy)phenyl)acetamide] | < 2.5 |
| Cc1cc(CC(=O)Nc2cnn(C(C)(C)C)c2)ccc1Oc1ccnc2ccc(N3CCC(O)C3=O)cc12 (single isomer, unassigned) [Compound 326, N-(1-(tert-butyl)-1H-pyrazol-4-yl)-2-(4-((6-(3-hydroxy-2-oxopyrrolidin-1-yl)quinolin-4-yl)oxy)-3-methylphenyl) acetamide] | < 2.5 |
| Cc1cc(CC(=O)Nc2cnn(C(C)(C)C)c2)ccc1Oc1ccnc2ccc(N3CCC(O)C3=O)cc12 (single isomer, unassigned) [Compound 327, N-(1-(tert-butyl)-1H-pyrazol-4-yl)-2-(4-((6-(3-hydroxy-2-oxopyrrolidin-1-yl)quinolin-4-yl)oxy)-3-methylphenyl) acetamide] | < 2.5 |
| Cc1c(Oc2ccnc3ccc(C(=O)N4CCC(O)C4)cc23)ccc(CC(=O)Nc2cnn(C(C)(C)C)c2)c1F (single isomer, unassigned) [Compound 351, N-(1-(tert-butyl)-1H-pyrazol-4-yl)-2-(2-fluoro-4-((6-(3-hydroxy-pyrrolidine-1-carbonyl)quinolin-4-yl)oxy)-3-methyl-phenyl) acetamide] | < 2.5 |
| Cc1c(Oc2ccnc3ccc(C(=O)N4CCC(O)C4)cc23)ccc(CC(=O)Nc2cnn(C(C)(C)C)c2)c1F (single isomer, unassigned) [Compound 352, N-(1-(tert-butyl)-1H-pyrazol-4-yl)-2-(2-fluoro-4-((6-(3-hydroxy-pyrrolidine-1-carbonyl)quinolin-4-yl)oxy)-3-methyl-phenyl) acetamide] | < 2.5 |
| Cc1c(Oc2ccnc3ccc(C(=O)N4CCC(N)C4)cc23)ccc(CC(=O)Nc2cnn(C(C)(C)C)c2)c1F (single isomer, unassigned) [Compound 353, 2-(4-((6-(3-amino-pyrrolidine-1-carbonyl)quinolin-4-yl)oxy)-2-fluoro-3-methyl-phenyl)-N-(1-(tert-butyl)-1H-pyrazol-4-yl)acetamide] | < 2.5 |
